Source: patent publication US20230079819A1, “COMPOUNDS AND USES THEREOF” (Foghorn Therapeutics Inc., priority 2019, published 2023)

Experiments:
[1] = target: T1, BRG-1 (Homo sapiens, UniProt P51532); assay: ATPase catalytic activity of BRG-1, ADP-Glo in vitro biochemical assay; settings: ATPase catalytic activity, 30 nM BRG-1, 400 μM ATP, read-out: BRG1 IP50 (μM)*
T1 construct: made in house; host or cells: High Five insect cells

[2] = target: T2, BRM (Homo sapiens, UniProt P51531); assay: ATPase catalytic activity of BRM, ADP-Glo in vitro biochemical assay; settings: ATPase catalytic activity, 30 nM BRM, 400 μM ATP, read-out: BRM IP50 (μM)*
T2 construct: made in house; host or cells: High Five insect cells
T2 sequence (P51531 whole entry): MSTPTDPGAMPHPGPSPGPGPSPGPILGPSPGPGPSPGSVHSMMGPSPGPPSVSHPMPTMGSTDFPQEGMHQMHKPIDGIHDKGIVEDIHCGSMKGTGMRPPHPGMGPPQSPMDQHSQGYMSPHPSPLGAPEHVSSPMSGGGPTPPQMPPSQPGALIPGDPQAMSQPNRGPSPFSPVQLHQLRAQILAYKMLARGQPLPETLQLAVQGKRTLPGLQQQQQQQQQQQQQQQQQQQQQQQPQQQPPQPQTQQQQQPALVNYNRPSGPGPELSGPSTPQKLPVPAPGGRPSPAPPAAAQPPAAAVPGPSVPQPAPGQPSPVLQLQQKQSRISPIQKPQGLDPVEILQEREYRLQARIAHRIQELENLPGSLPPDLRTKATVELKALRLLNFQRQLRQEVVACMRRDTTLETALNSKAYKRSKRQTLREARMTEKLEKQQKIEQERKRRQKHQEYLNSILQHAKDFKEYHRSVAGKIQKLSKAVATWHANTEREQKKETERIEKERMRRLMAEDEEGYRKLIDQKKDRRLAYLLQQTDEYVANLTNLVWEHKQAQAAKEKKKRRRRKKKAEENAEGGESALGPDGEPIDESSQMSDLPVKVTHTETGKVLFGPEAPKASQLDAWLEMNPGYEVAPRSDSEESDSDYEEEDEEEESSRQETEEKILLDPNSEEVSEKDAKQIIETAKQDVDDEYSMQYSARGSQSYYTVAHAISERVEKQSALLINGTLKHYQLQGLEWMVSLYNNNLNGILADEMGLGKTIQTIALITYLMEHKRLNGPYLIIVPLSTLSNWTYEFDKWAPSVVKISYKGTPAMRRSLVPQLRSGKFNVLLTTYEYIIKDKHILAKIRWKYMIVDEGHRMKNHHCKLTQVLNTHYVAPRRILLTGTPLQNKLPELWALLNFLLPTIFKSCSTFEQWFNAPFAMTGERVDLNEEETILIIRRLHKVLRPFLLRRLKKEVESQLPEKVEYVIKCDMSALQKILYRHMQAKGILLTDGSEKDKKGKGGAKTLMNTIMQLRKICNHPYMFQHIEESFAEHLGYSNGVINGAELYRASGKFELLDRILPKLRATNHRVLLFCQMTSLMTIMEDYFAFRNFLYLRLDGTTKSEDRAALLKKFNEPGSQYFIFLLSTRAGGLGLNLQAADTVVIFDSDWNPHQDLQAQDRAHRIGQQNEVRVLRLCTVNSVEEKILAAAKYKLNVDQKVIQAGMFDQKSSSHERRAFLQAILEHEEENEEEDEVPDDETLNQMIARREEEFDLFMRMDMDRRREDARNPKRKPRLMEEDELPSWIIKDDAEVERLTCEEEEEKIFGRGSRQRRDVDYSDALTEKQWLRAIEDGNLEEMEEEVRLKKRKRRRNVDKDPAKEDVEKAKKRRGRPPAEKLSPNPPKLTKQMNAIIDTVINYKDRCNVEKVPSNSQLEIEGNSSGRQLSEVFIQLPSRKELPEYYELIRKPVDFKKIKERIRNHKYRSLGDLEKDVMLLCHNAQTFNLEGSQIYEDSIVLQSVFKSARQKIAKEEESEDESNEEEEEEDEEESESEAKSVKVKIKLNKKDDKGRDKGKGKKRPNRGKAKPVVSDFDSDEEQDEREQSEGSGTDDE

T1 sequence (P51532 whole entry): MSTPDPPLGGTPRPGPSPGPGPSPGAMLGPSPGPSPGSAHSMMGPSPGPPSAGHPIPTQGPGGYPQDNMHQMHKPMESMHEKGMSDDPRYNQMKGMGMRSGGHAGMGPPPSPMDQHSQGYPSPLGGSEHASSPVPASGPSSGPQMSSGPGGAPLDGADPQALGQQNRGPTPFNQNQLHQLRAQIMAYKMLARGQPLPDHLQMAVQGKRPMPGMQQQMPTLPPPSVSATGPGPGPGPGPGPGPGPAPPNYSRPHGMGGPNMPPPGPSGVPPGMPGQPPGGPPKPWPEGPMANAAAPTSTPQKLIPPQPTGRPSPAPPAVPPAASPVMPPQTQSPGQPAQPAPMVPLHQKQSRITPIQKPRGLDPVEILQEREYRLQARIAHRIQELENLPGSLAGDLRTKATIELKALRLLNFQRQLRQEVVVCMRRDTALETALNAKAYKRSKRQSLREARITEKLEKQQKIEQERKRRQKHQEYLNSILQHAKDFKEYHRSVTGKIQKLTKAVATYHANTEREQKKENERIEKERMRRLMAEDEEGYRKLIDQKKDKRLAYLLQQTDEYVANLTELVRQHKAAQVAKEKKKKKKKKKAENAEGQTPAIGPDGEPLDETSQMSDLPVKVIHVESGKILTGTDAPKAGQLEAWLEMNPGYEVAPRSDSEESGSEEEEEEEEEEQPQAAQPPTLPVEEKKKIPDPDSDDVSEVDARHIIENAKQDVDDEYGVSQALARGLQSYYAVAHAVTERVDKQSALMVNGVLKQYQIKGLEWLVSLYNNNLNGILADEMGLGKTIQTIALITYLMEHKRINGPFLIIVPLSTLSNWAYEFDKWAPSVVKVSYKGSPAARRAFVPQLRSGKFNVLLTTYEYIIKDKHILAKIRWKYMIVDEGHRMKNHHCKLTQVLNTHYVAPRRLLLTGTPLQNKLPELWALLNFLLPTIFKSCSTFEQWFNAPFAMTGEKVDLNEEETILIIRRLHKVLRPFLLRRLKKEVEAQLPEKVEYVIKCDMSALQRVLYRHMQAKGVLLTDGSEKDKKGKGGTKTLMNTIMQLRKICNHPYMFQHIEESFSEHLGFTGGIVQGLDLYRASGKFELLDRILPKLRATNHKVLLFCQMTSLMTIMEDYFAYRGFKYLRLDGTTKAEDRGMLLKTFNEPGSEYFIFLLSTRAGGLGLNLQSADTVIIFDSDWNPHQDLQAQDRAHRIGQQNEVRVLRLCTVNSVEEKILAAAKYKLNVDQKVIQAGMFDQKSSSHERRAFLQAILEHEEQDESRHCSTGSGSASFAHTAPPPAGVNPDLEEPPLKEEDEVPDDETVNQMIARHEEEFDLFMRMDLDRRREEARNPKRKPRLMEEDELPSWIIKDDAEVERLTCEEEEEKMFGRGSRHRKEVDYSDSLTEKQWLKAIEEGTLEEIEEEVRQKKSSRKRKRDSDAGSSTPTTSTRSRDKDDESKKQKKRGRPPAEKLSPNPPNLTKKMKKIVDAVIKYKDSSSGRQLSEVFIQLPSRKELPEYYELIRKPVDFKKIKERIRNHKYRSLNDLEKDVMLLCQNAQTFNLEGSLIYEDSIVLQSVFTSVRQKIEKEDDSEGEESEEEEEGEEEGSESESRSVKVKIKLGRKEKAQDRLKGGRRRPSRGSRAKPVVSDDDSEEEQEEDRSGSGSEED

In the case of `Cn1cc(-c2cccc(-c3csc(NC(=O)CNC(=O)c4ccn(C(C)(C)C)c4)n3)c2)cn1` [Compound 83, 1-(tert-butyl)-N-(2-((4-(3-(1-methyl-1H-pyrazol-4-yl)phenyl)thiazol-2-yl)amino)-2-oxoethyl)-1H-pyrrole-3-carboxamide], the IC50 [1] is reported as greater than 0.01 µM and the IC50 [2] is reported as greater than 0.01 µM.
Work on `CC(C)(C)n1ccc(C(=O)NCC(=O)Nc2nc(-c3cccc(-c4ccncn4)c3)cs2)c1` [Compound 84, 1-(tert-butyl)-N-(2-oxo-2-((4-(3-(pyrimidin-4-yl)phenyl)thiazol-2-yl)amino)ethyl)-1H-pyrrole-3-carboxamide] yielded an IC50 [1] greater than 0.01 µM and an IC50 [2] of less than 0.01 µM.
`C[C@@H]1CN(c2cccc(-c3csc(NC(=O)CNC(=O)c4ccn(S(C)(=O)=O)c4)n3)c2)C[C@@H](C)O1` [Compound 85, N-(2-((4-(3-((2R, 6R)-2,6-dimethylmorpholino)phenyl)thiazol-2-yl)amino)-2-oxoethyl)-1-(methylsulfonyl)-1H-pyrrole-3-carboxamide] gave an IC50 [1] of less than 0.01 µM and an IC50 [2] of less than 0.01 µM.
With `C[C@H]1CN(c2cccc(-c3csc(NC(=O)CNC(=O)c4ccn(S(C)(=O)=O)c4)n3)c2)C[C@H](C)O1` [Compound 86, N-(2-((4-(3-((2S, 6S)-2,6-dimethylmorpholino)phenyl)thiazol-2-yl)amino)-2-oxoethyl)-1-(methylsulfonyl)-1H-pyrrole-3-carboxamide] the IC50 [1] was less than 0.01 µM and the IC50 [2] was less than 0.01 µM.
`C[C@H]1CN(c2cccc(-c3csc(NC(=O)CNC(=O)c4ccn(S(C)(=O)=O)c4)n3)c2)CCO1` [Compound 87, (S)—N-(2-((4-(3-(2-methylmorpholino)phenyl)thiazol-2-yl)amino)-2-oxoethyl)-1-(methylsulfonyl)-1H-pyrrole-3-carboxamide] showed an IC50 [1] of less than 0.01 µM and an IC50 [2] of less than 0.01 µM.
In the case of `C[C@@H]1CN(c2cccc(-c3csc(NC(=O)CNC(=O)c4ccn(S(C)(=O)=O)c4)n3)c2)CCO1` [Compound 88, (R)—N-(2-((4-(3-(2-methylmorpholino)phenyl)thiazol-2-yl)amino)-2-oxoethyl)-1-(methylsulfonyl)-1H-pyrrole-3-carboxamide], the IC50 [1] is reported as less than 0.01 µM and the IC50 [2] is reported as less than 0.01 µM.
Compound `CC1(C)CN(c2cccc(-c3csc(NC(=O)CNC(=O)c4ccn(S(C)(=O)=O)c4)n3)c2)CCO1` [Compound 89, N-(2-((4-(3-(2,2-dimethylmorpholino)phenyl)thiazol-2-yl)amino)-2-oxoethyl)-1-(methylsulfonyl)-1H-pyrrole-3-carboxamide] has an IC50 [1] greater than 0.01 µM and an IC50 [2] greater than 0.01 µM.
In the case of `C[C@@H]1CN(c2cccc(-c3csc(NC(=O)CNC(=O)c4ccn(C(C)(C)C)c4)n3)c2)C[C@H](C)O1` [Compound 90, 1-(tert-butyl)-N-(2-((4-(3-(cis-2,6-dimethylmorpholino)phenyl)thiazol-2-yl)amino)-2-oxoethyl)-1H-pyrrole-3-carboxamide], the IC50 [1] is reported as less than 0.01 µM and the IC50 [2] is reported as less than 0.01 µM.
`COCC1CCN(c2cccc(-c3csc(NC(=O)CNC(=O)c4ccn(S(C)(=O)=O)c4)n3)c2)CC1` [Compound 91, N-(2-((4-(3-(4-(methoxymethyl)piperidin-1-yl)phenyl)thiazol-2-yl)amino)-2-oxoethyl)-1-(methylsulfonyl)-1H-pyrrole-3-carboxamide] gave an IC50 [1] greater than 0.1 µM and an IC50 [2] greater than 0.01 µM.
With `COC[C@H]1CCCN(c2cccc(-c3csc(NC(=O)CNC(=O)c4ccn(S(C)(=O)=O)c4)n3)c2)C1` [Compound 92, (S)—N-(2-((4-(3-(3-(methoxymethyl)piperidin-1-yl)phenyl)thiazol-2-yl)amino)-2-oxoethyl)-1-(methylsulfonyl)-1H-pyrrole-3-carboxamide] the IC50 [1] was greater than 0.01 µM and the IC50 [2] was greater than 0.01 µM.
`Cc1cn(-c2cccc(-c3csc(NC(=O)CNC(=O)c4ccn(S(C)(=O)=O)c4)n3)c2)cn1` [Compound 93, N-(2-((4-(3-(4-methyl-1H-imidazol-1-yl)phenyl)thiazol-2-yl)amino)-2-oxoethyl)-1-(methylsulfonyl)-1H-pyrrole-3-carboxamide] showed an IC50 [1] greater than 0.01 µM and an IC50 [2] greater than 0.01 µM.
For `CS(=O)(=O)n1ccc(C(=O)NCC(=O)Nc2nc(-c3cccc(N4CCC(O)CC4)c3)cs2)c1` [Compound 94, N-(2-((4-(3-(4-hydroxypiperidin-1-yl)phenyl)thiazol-2-yl)amino)-2-oxoethyl)-1-(methylsulfonyl)-1H-pyrrole-3-carboxamide], the IC50 [1] was less than 0.01 µM and the IC50 [2] was less than 0.01 µM.
`COC1CCN(c2cccc(-c3csc(NC(=O)CNC(=O)c4ccn(S(C)(=O)=O)c4)n3)c2)CC1` [Compound 95, N-[2-[[4-[3-(4-methoxy-1-piperidyl)phenyl]thiazol-2-yl]amino]-2-oxo-ethyl]-1-methylsulfonyl-pyrrole-3-carboxamide] gave an IC50 [1] greater than 0.01 µM and an IC50 [2] greater than 0.01 µM.
Compound `COC1(C)CCN(c2cccc(-c3csc(NC(=O)CNC(=O)c4ccn(S(C)(=O)=O)c4)n3)c2)CC1` [Compound 96, N-(2-((4-(3-(4-methoxy-4-methylpiperidin-1-yl)phenyl)thiazol-2-yl)amino)-2-oxoethyl)-1-(methylsulfonyl)-1H-pyrrole-3-carboxamide] has an IC50 [1] greater than 0.1 µM and an IC50 [2] greater than 0.01 µM.
Compound `CO[C@@H]1CCCN(c2cccc(-c3csc(NC(=O)CNC(=O)c4ccn(C(C)(C)C)c4)n3)c2)C1` [Compound 97, (R)-1-(tert-butyl)-N-(2-((4-(3-(3-methoxypiperidin-1-yl)phenyl)thiazol-2-yl)amino)-2-oxoethyl)-1H-pyrrole-3-carboxamide] has an IC50 [1] greater than 0.1 µM and an IC50 [2] greater than 0.1 µM.
In the case of `CO[C@H]1CCCN(c2cccc(-c3csc(NC(=O)CNC(=O)c4ccn(C(C)(C)C)c4)n3)c2)C1` [Compound 98, (S)-1-(tert-butyl)-N-(2-((4-(3-(3-methoxypiperidin-1-yl)phenyl)thiazol-2-yl)amino)-2-oxoethyl)-1H-pyrrole-3-carboxamide], the IC50 [1] is reported as greater than 0.01 µM and the IC50 [2] is reported as greater than 0.01 µM.
`CS(=O)(=O)n1ccc(C(=O)NCC(=O)Nc2nc(-c3cccc(N4CCOCC4)c3)cs2)c1` [Compound 99, 1-methylsulfonyl-N-[2-[[4-(3-morpholinophenyl)thiazol-2-yl]amino]-2-oxo-ethyl]pyrrole-3-carboxamide] gave an IC50 [1] greater than 0.01 µM and an IC50 [2] of less than 0.01 µM.
`CC(C)(C)n1ccc(C(=O)NCC(=O)Nc2nc(-c3cccc(N4CCOCC4)c3)cs2)c1` [Compound 100, 1-tert-butyl-N-[2-[[4-(3-morpholinophenyl)thiazol-2-yl]amino]-2-oxo-ethyl]pyrrole-3-carboxamide] was tested, and the IC50 [1] was greater than 0.01 µM and the IC50 [2] was greater than 0.01 µM.
`CS(=O)(=O)n1ccc(C(=O)NCC(=O)Nc2nc(-c3cccc(N4CC5(COC5)C4)c3)cs2)c1` [Compound 101, N-(2-((4-(3-(2-oxa-6-azaspiro[3.3]heptan-6-yl)phenyl)thiazol-2-yl)amino)-2-oxoethyl)-1-(methylsulfonyl)-1H-pyrrole-3-carboxamide] gave an IC50 [1] of less than 0.01 µM and an IC50 [2] of less than 0.01 µM.
`CC(C)(Oc1ccncc1)c1cccc(-c2csc(NC(=O)CNC(=O)c3ccn(S(C)(=O)=O)c3)n2)c1` [Compound 102, 1-(methylsulfonyl)-N-(2-oxo-2-((4-(3-(2-(pyridin-4-yloxy)propan-2-yl)phenyl)thiazol-2-yl)amino)ethyl)-1H-pyrrole-3-carboxamide] gave an IC50 [1] greater than 0.1 µM and an IC50 [2] greater than 0.1 µM.
`CC(Oc1ccccc1)c1cccc(-c2csc(NC(=O)CNC(=O)c3ccn(S(C)(=O)=O)c3)n2)c1` (stereo not drawn) [Compound 103, 1-(methylsulfonyl)-N-(2-oxo-2-((4-(3-(1-phenoxyethyl)phenyl)thiazol-2-yl)amino)ethyl)-1H-pyrrole-3-carboxamide] showed an IC50 [1] greater than 0.1 µM and an IC50 [2] greater than 0.1 µM.
